Data on two compounds can be found in ChEMBL document CHEMBL1134216, “Synthesis, modelling and NK1 antagonist evaluation of a non-rigid cyclopropane-containing analogue of CP-99,994” (Bioorg Med Chem Lett, 2001).

Molecules are shown by their SMILES.

This assay has as its target Substance-P receptor (Homo sapiens, UniProt P25103). Nature of the assay: Binding affinity towards Tachykinin receptor 1 expressed in CHO cells using [3H][Pro9]-SP as radioligand. Type of assay: cell-based.

Chain of Substance-P receptor (P25103 whole entry): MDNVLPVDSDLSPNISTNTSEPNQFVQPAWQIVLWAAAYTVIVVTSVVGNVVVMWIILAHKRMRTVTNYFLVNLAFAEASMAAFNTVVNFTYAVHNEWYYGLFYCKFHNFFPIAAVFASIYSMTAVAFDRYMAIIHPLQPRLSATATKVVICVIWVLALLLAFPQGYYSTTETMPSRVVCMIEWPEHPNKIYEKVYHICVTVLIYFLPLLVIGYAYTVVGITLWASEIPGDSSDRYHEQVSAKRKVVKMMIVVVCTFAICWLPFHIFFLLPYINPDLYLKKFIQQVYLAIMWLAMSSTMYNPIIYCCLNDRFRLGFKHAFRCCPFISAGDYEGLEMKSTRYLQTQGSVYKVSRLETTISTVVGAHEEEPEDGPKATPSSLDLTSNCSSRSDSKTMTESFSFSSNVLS

`CNC(c1ccccc1)C1(NCc2ccccc2OC)CC1` (configuration not stated) yielded a Ki of 150 nM.

The compound `CNC(c1ccccc1)C1(NCc2cc(C(F)(F)F)cc(C(F)(F)F)c2)CC1` (racemic) returned a Ki of 620 nM.

One may read the Ki as the dissociation constant of the complex between target and ligand, obtained from inhibition or displacement. Low readings indicate tighter binding, high ones weaker binding.
